How the values were obtained:
[1] = system: barnyardgrass (Echinochloa crus-galli); assay: Test B flooded paddy test, visual rating 0-100; conditions: Flood, 250 g ai/ha, applied to paddy water, rated after 13 to 15 days
kochia (Kochia scoparia) [2] = assay: Test A preemergence, visual injury rating 0-100; type: in vivo
[3] = system: foxtail, green (green foxtail, Setaria viridis); assay: Test A preemergence, visual injury rating 0-100; type: in vivo
[4] = system: pigweed (Amaranthus retroflexus); assay: Test A preemergence, visual injury rating 0-100; type: in vivo
[5] = system: ryegrass, Italian (Italian ryegrass, Lolium multiflorum); assay: Test A preemergence, visual injury rating 0-100; type: in vivo
[6] = system: ragweed (common ragweed, Ambrosia elatior); assay: Test A preemergence, visual injury rating 0-100; type: in vivo
rice (Oryza sativa) = assay: Test B flooded paddy test, visual rating 0-100 (0 no effect, 100 complete control); conditions: Flood, 250 g ai/ha, applied to paddy water, rated after 13 to 15 days
[7] = system: barnyardgrass (Echinochloa crus-galli); assay: Test A preemergence, visual injury rating 0-100 (0 no effect, 100 complete control); type: in vivo; conditions: for Barnyardgrass plant response rating (0 to 100 scale): 125 g ai/ha
[8] = system: ducksalad (Heteranthera limosa); assay: Test B flooded paddy test, visual rating 0-100; conditions: Flood, 250 g ai/ha, applied to paddy water, rated after 13 to 15 days
kochia (Kochia scoparia) [9] = assay: Test A postemergence, visual injury rating 0-100; type: in vivo; conditions: 0 to 100 scale
corn (Zea mays) = assay: Test A postemergence, visual injury rating 0-100; type: in vivo; conditions: 0 to 100 scale
[10] = system: blackgrass (Alopecurus myosuroides); assay: Test A postemergence, visual injury rating 0-100; type: in vivo; conditions: 0 to 100 scale
[11] = system: galium (catchweed bedstraw, Galium aparine); assay: Test A postemergence, visual injury rating 0-100; type: in vivo; conditions: 0 to 100 scale
[12] = system: barnyardgrass (Echinochloa crus-galli); assay: Test A postemergence, visual injury rating 0-100; type: in vivo; conditions: 0 to 100 scale
[13] = system: wheat (Triticum aestivum); assay: Test A postemergence, visual injury rating 0-100; type: in vivo; conditions: 0 to 100 scale
[14] = system: foxtail, green (green foxtail, Setaria viridis); assay: Test A postemergence, visual injury rating 0-100; type: in vivo; conditions: 0 to 100 scale
[15] = system: pigweed (Amaranthus retroflexus); assay: Test A postemergence, visual injury rating 0-100; type: in vivo; conditions: 0 to 100 scale
[16] = system: ryegrass, Italian (Italian ryegrass, Lolium multiflorum); assay: Test A postemergence, visual injury rating 0-100; type: in vivo; conditions: 0 to 100 scale
[17] = system: ragweed (common ragweed, Ambrosia elatior); assay: Test A postemergence, visual injury rating 0-100; type: in vivo; conditions: 0 to 100 scale
[18] = 31 g ai/ha, 0 to 100 scale (0 no effect, 100 complete control), approx. 10 days

Compound | Barnyardgrass plant response rating (0 to 100 scale) [1] | Kochia plant response rating (0 to 100 scale) (kochia (Kochia scoparia) [2]; 125 g ai/ha) | Foxtail, Green plant response rating (0 to 100 scale) ([3]; 125 g ai/ha) | Pigweed plant response rating (0 to 100 scale) ([4]; 125 g ai/ha) | Ryegrass, Italian plant response rating (0 to 100 scale) ([5]; 125 g ai/ha) | Ragweed plant response rating (0 to 100 scale) ([6]; 125 g ai/ha) | Rice plant response rating (0 to 100 scale) (rice (Oryza sativa)) | Barnyardgrass plant response rating (0 to 100 scale) [7] | Barnyardgrass plant response rating ([7]; 500 g ai/ha, 0 to 100 scale) | Ducksalad plant response rating (0 to 100 scale) [8] | Kochia plant response rating (kochia (Kochia scoparia) [9]; 125 g ai/ha) | Corn plant response rating (corn (Zea mays); 125 g ai/ha) | Blackgrass plant response rating ([10]; 125 g ai/ha) | Galium plant response rating ([11]; 125 g ai/ha) | Barnyardgrass plant response rating ([12]; 125 g ai/ha) | Wheat plant response rating ([13]; 125 g ai/ha) | Foxtail, Green plant response rating ([14]; 125 g ai/ha) | Pigweed plant response rating ([15]; 125 g ai/ha) | Ryegrass, Italian plant response rating ([16]; 125 g ai/ha) | Ragweed plant response rating ([17]; 125 g ai/ha) | other results
CSc1ccccc1NC(=O)C1C(c2ccc(C(F)(F)F)cc2)CC(C)=[N+]1[O-] (racemic) [Compound 29] | 0 | 0 | 20 | 10 | 0 | 20 | 0 | 0 | 80 | 0 | 0 | 0 | 20 | 40 | 10 | 0 | 20 | 10 | 0 | 0 | Kochia plant response rating (kochia (Kochia scoparia) [2]; 500 g ai/ha, 0 to 100 scale): 20; Foxtail, Green plant response rating ([3]; 500 g ai/ha, 0 to 100 scale): 100; Pigweed plant response rating ([4]; 500 g ai/ha, 0 to 100 scale): 90; Ryegrass, Italian plant response rating ([5]; 500 g ai/ha, 0 to 100 scale): 20; Ragweed plant response rating ([6]; 500 g ai/ha, 0 to 100 scale): 100; Kochia plant response rating (kochia (Kochia scoparia) [9]; 500 g ai/ha): 0; Corn plant response rating (corn (Zea mays); 500 g ai/ha): 0; Blackgrass plant response rating ([10]; 500 g ai/ha): 30; Galium plant response rating ([11]; 500 g ai/ha): 60; Barnyardgrass plant response rating ([12]; 500 g ai/ha): 30; Wheat plant response rating ([13]; 500 g ai/ha): 0; Foxtail, Green plant response rating ([14]; 500 g ai/ha): 50; Pigweed plant response rating ([15]; 500 g ai/ha): 30; Ryegrass, Italian plant response rating ([16]; 500 g ai/ha): 0; Ragweed plant response rating ([17]; 500 g ai/ha): 60
CC1=[N+]([O-])C(C(=O)Nc2cccc(F)c2F)C(c2cccc(Br)c2)C1 (racemic) [Compound 19] | 85 | 0 | 50 | 20 | 0 | 20 | 15 | 70 | 90 | 95 | 0 | 30 | 20 | 0 | 10 | 0 | 30 | 0 | 0 | 0 | Kochia plant response rating (kochia (Kochia scoparia) [2]; 500 g ai/ha, 0 to 100 scale): 60; Foxtail, Green plant response rating ([3]; 500 g ai/ha, 0 to 100 scale): 90; Pigweed plant response rating ([4]; 500 g ai/ha, 0 to 100 scale): 60; Ryegrass, Italian plant response rating ([5]; 500 g ai/ha, 0 to 100 scale): 40; Ragweed plant response rating ([6]; 500 g ai/ha, 0 to 100 scale): 50; Kochia plant response rating (kochia (Kochia scoparia) [9]; 500 g ai/ha): 30; Corn plant response rating (corn (Zea mays); 500 g ai/ha): 80; Blackgrass plant response rating ([10]; 500 g ai/ha): 60; Galium plant response rating ([11]; 500 g ai/ha): 30; Barnyardgrass plant response rating ([12]; 500 g ai/ha): 90; Wheat plant response rating ([13]; 500 g ai/ha): 70; Foxtail, Green plant response rating ([14]; 500 g ai/ha): 60; Pigweed plant response rating ([15]; 500 g ai/ha): 20; Ryegrass, Italian plant response rating ([16]; 500 g ai/ha): 40; Ragweed plant response rating ([17]; 500 g ai/ha): 20
CC1=[N+]([O-])C(C(=O)Nc2cccc(F)n2)C(c2ccc(C(F)(F)F)cc2)C1 (racemic) [Compound 47] | 40 | 40 | 90 | 80 | 0 | 90 | 0 | 80 | 100 | 75 | 0 | 0 | 0 | 50 | 50 | 0 | 50 | 0 | 0 | 0 | Kochia plant response rating (0 to 100 scale) (kochia (Kochia scoparia) [2]; 500 g ai/ha): 90; Foxtail, Green plant response rating (0 to 100 scale) ([3]; 500 g ai/ha): 100; Pigweed plant response rating (0 to 100 scale) ([4]; 500 g ai/ha): 100; Ryegrass, Italian plant response rating (0 to 100 scale) ([5]; 500 g ai/ha): 20; Ragweed plant response rating (0 to 100 scale) ([6]; 500 g ai/ha): 100; Kochia plant response rating (kochia (Kochia scoparia) [9]; 500 g ai/ha): 0; Corn plant response rating (corn (Zea mays); 500 g ai/ha): 20; Blackgrass plant response rating ([10]; 500 g ai/ha): 0; Galium plant response rating ([11]; 500 g ai/ha): 30; Barnyardgrass plant response rating ([12]; 500 g ai/ha): 90; Wheat plant response rating ([13]; 500 g ai/ha): 0; Foxtail, Green plant response rating ([14]; 500 g ai/ha): 90; Pigweed plant response rating ([15]; 500 g ai/ha): 20; Ryegrass, Italian plant response rating ([16]; 500 g ai/ha): 50; Ragweed plant response rating ([17]; 500 g ai/ha): 40
CC1=[N+]([O-])C(C(=O)Nc2cccc(F)c2F)C(c2ccccc2F)C1 (racemic) [Compound 21] | 40 | 0 | 20 | 0 | 0 | 0 | 0 | 10 | 90 | 80 | 0 | 0 | 0 | 0 | 0 | 0 | 0 | 0 | 0 | 0 | Kochia plant response rating (kochia (Kochia scoparia) [2]; 500 g ai/ha, 0 to 100 scale): 40; Foxtail, Green plant response rating ([3]; 500 g ai/ha, 0 to 100 scale): 90; Pigweed plant response rating ([4]; 500 g ai/ha, 0 to 100 scale): 0; Ryegrass, Italian plant response rating ([5]; 500 g ai/ha, 0 to 100 scale): 0; Ragweed plant response rating ([6]; 500 g ai/ha, 0 to 100 scale): 0; Kochia plant response rating (kochia (Kochia scoparia) [9]; 500 g ai/ha): 0; Corn plant response rating (corn (Zea mays); 500 g ai/ha): 20; Blackgrass plant response rating ([10]; 500 g ai/ha): 20; Galium plant response rating ([11]; 500 g ai/ha): 0; Barnyardgrass plant response rating ([12]; 500 g ai/ha): 50; Wheat plant response rating ([13]; 500 g ai/ha): 0; Foxtail, Green plant response rating ([14]; 500 g ai/ha): 20; Pigweed plant response rating ([15]; 500 g ai/ha): 0; Ryegrass, Italian plant response rating ([16]; 500 g ai/ha): 0; Ragweed plant response rating ([17]; 500 g ai/ha): 0
CC1=[N+]([O-])[C@@H](C(=O)Nc2cccc(F)c2F)[C@H](c2ccc(F)c(F)c2)C1 [Compound 39] | 90 | 30 | 100 | 30 | 10 | 100 | 10 | 100 | – | 100 | 0 | 10 | 50 | 10 | 60 | 50 | 70 | 0 | 10 | 0 | Kochia plant response rating (kochia (Kochia scoparia) [2]; [18]): 0; Foxtail, Green plant response rating [3, 18]: 100; Pigweed plant response rating [4, 18]: 0; Ryegrass, Italian plant response rating [5, 18]: 20; Ragweed plant response rating [6, 18]: 0; Barnyardgrass plant response rating [7, 18]: 100; Kochia plant response rating (kochia (Kochia scoparia) [9]; 31 g ai/ha): 0; Corn plant response rating (corn (Zea mays); 31 g ai/ha): 0; Blackgrass plant response rating ([10]; 31 g ai/ha): 0; Galium plant response rating ([11]; 31 g ai/ha): 0; Barnyardgrass plant response rating ([12]; 31 g ai/ha): 0; Wheat plant response rating ([13]; 31 g ai/ha): 0; Foxtail, Green plant response rating ([14]; 31 g ai/ha): 10; Pigweed plant response rating ([15]; 31 g ai/ha): 0; Ryegrass, Italian plant response rating ([16]; 31 g ai/ha): 0; Ragweed plant response rating ([17]; 31 g ai/ha): 0
